Data published in PMC4865845, “A human genome-wide loss-of-function screen identifies effective chikungunya antiviral drugs” (Nature Communications, 2016).

System: CHIKV
Assay type: cell-based, chikungunya virus

Substance: Hs_CSNK1A1_5 (sense AGGGCTAAAGGCTGCAACAAA; chemistry not given here)
- Score_si1: 2.25

Substance: Hs_CUL4A_1 (sense ACCCATATTATTAGTGATAAA; chemistry not given here) [reference compound]
- Score_si1: -2.33

Substance: Hs_D21S2056E_1 (CAGGGAATTCAGCTCCAGTAA; chemistry not given here)
- Score_si1: 2.83

Substance: Hs_DC-UbP_1 (AAGGCAGTTAAGAAATAGATA; chemistry not given here)
- Score_si2: 1.13

Substance: Hs_DC-UbP_2 (CAGGCTTTGAGACTCATGTAA; chemistry not given here)
- Score_si1: 1.59

Substance: Hs_DC-UbP_5 (AGGCAGTTAAGAAATAGATAA; chemistry not given here)
- Score_si3: 0.86

Substance: Hs_DHX38_1 (CAGGATTTGGAAATAAATTTA; chemistry not given here)
- Score_si1: 2.48

Substance: Hs_DHX38_2 (CAGCAGTGAATTTGCAAAGAA; chemistry not given here)
- Score_si4: 1.02

Substance: Hs_DKFZP434B168_1 (CTGAAATTACTTGCTAATAAA; chemistry not given here)
- Score_si3: 1.61

Substance: Hs_DKFZP564C186_1 (AAGGATGAGGACAGGAAGCAA; chemistry not given here)
- Score_si1: 2.71

Substance: Hs_DKFZP564C186_2 (CACGGACAGTGCTGCATTCAA; chemistry not given here)
- Score_si3: 1.17

Substance: Hs_DKFZp547E052_2 (CAGGAGATAGGACATCATTTA; chemistry not given here)
- Score_si1: 2.29

Substance: Hs_DLD_2 (CCCACTTATTCAAACAGAATA; chemistry not given here)
- Score_si4: 0.87

Substance: Hs_DLD_3 (CAGGTGGAATTGCCCACTTAT; chemistry not given here)
- Score_si1: 2.15

Substance: Hs_DLD_4 (TCGCTTGAATTTAGACAAGAT; chemistry not given here)
- Score_si2: 1.23

Substance: Hs_DMAP1_1 (GCGGATGTACGGGACATTCTA; chemistry not given here)
- Score_si1: 2.23

Substance: Hs_DOK6_1 (TACGCCAAACCTGGATATTTA; chemistry not given here) [reference compound]
- Score_si3: -0.32

Substance: Hs_DOK6_5 (CTGAGCAACATGAAAGATTAA; chemistry not given here) [reference compound]
- Score_si1: -2.96

Substance: Hs_E2F3_1 (TTGCGTTACTTTAAGTACTAA; chemistry not given here) [reference compound]
- Score_si1: -2.09

Substance: Hs_E2F3_5 (TACAGTATTTGCGTTACTTTA; chemistry not given here) [reference compound]
- Score_si2: -1.78

Substance: Hs_EEF1A1_1 (CTGGTTAATGATAACAATGCA; chemistry not given here)
- Score_si3: 2.24

Substance: Hs_EEF1A1_4 (CAACGTTACAACGGAAGTAAA; chemistry not given here)
- Score_si1: 2.64

Substance: Hs_EEF2_2 (TGCCGTTTCTTTCAATATTTA; chemistry not given here)
- Score_si1: 2.07

Substance: Hs_EIF2B2_2 (CAACATCATTGAGGCGATTAA; chemistry not given here)
- Score_si1: 2.1

Substance: Hs_EIF2B5_1 (CTTGTATATGTTAATATTAAA; chemistry not given here)
- Score_si4: 1.02

Substance: Hs_EIF2B5_2 (CAAAGTGAAGATGAAAGGTTA; chemistry not given here)
- Score_si1: 1.62

Substance: Hs_ENTPD2_1 (CACGTCCATGTTTATCTACAA; chemistry not given here)
- Score_si2: 1.25

Substance: Hs_ENTPD2_2 (CGGCGTGATCTTCCAGAAGAA; chemistry not given here)
- Score_si1: 1.32

Substance: Hs_EP400_1 (CAGAATGATTTGGACATTGAA; chemistry not given here)
- Score_si1: 2.29

Substance: Hs_EXOSC1_1 (TTCATTCTCTTGAGTAATAAA; chemistry not given here) [reference compound]
- Score_si4: 0.51

Substance: Hs_EXOSC1_2 (AAGCAGAGAAAGACATCTAAA; chemistry not given here) [reference compound]
- Score_si1: -2.21

Substance: Hs_EZH2_6 (CAGGATGGTACTTTCATTGAA; chemistry not given here)
- Score_si1: 1.77

Substance: Hs_EZH2_7 (AACCATGTTTACAACTATCAA; chemistry not given here)
- Score_si4: 0.98

Substance: Hs_F25965_1 (CAGCGAGAACACGCCACTGTA; chemistry not given here)
- Score_si1: 1.49

Substance: Hs_F25965_2 (ACCAGCTTCGTTACTCAGAAA; chemistry not given here)
- Score_si3: 1.05

Substance: Hs_FASN_3 (CCGCTACATGGCCCAAGGGAA; chemistry not given here)
- Score_si1: 2.39

Substance: Hs_FBXO42_3 (CAGGCTGGGATCAAATCTCCA; chemistry not given here)
- Score_si1: 2.82

Substance: Hs_FCGRT_1 (CTCGTCGTCACTAACAGTCAA; chemistry not given here)
- Score_si1: 2.15

Substance: Hs_FCGRT_2 (AAGGATGTAAATGTGATTCCA; chemistry not given here)
- Score_si2: 1.36

Substance: Hs_FLJ00193_2 (GAGCAGCTACATGGAGATGAA; chemistry not given here)
- Score_si1: 2.41

Substance: Hs_FLJ10134_1 (CTGATGTTATATGACTATAAA; chemistry not given here)
- Score_si1: 1.71

Substance: Hs_FLJ10134_2 (CTCCTTGACCATGGAATTATA; chemistry not given here)
- Score_si2: 1.53

Substance: Hs_FLJ11752_1 (sense CTGGATATTACTAGAGTTGTA; chemistry not given here)
- Score_si1: 2.31

Substance: Hs_FLJ20257_2 (sense CACCAAGTGGGTGCATCTGAA; chemistry not given here)
- Score_si1: 2.26

Substance: Hs_FLJ20530_2 (sense TTGACTTATCTTCATCATAAA; chemistry not given here)
- Score_si1: 2.95

Substance: Hs_FLJ31164_2 (sense CCAGCTGAGCACCCGAATAAA; chemistry not given here)
- Score_si4: 0.41

Substance: Hs_FLJ31164_3 (sense GAAGCTGTTGATAGTATTGAA; chemistry not given here)
- Score_si1: 1.5

Substance: Hs_FLJ31164_4 (sense GAGCAACTTGCTGGATGTGAA; chemistry not given here)
- Score_si2: 1.07

Substance: Hs_FLT4_4 (sense CGCGCTGATGTCGGAGCTCAA; chemistry not given here)
- Score_si1: 1.18

Substance: Hs_FLT4_8 (sense CACCGTGTGGGCTGAGTTTAA; chemistry not given here)
- Score_si2: 1.07

Substance: Hs_FTSJ2_1 (sense CAGAGGAATTCCAGAATGTAA; chemistry not given here)
- Score_si2: 1.91

Substance: Hs_FTSJ2_2 (sense CAGAATGTAAGGATCATCAAA; chemistry not given here)
- Score_si3: 1.86

Substance: Hs_FXC1_2 (sense CAAGTATTTGTTGGTTCATAA; chemistry not given here)
- Score_si1: 2.83

Substance: Hs_GAP43_1 (sense CCGGCTCAGCTGAGACAGAAA; chemistry not given here)
- Score_si1: 2.5

Substance: Hs_GBF1_1 (sense AAGAATATTTACATCATTCAA; chemistry not given here)
- Score_si4: 1.75

Substance: Hs_GCN1L1_2 (sense CAGGTTCAGCTGGAATGTGAA; chemistry not given here)
- Score_si1: 2.09

Substance: Hs_GFRA4_2 (sense CAGGTCAGAGACCATCCAGAA; chemistry not given here)
- Score_si1: 1.82

Substance: Hs_GFRA4_4 (sense CAGGAGGCATCTTGGTTGTAA; chemistry not given here)
- Score_si3: 1.57

Substance: Hs_GLTSCR2_4 (sense CAAGTTCAAACGCAAGTACAA; chemistry not given here)
- Score_si2: 1.95

Substance: Hs_GLTSCR2_6 (sense CCGGAGCTTCCTACAATCCAT; chemistry not given here)
- Score_si3: 1.7

Substance: Hs_GNB2L1_2 (sense CAGATTGTCTCTGGATCTCGA; chemistry not given here)
- Score_si1: 2.65

Substance: Hs_GNB2L1_5 (sense TTGGCACACGCTAGAAGTTTA; chemistry not given here)
- Score_si4: 1.27

Substance: Hs_GNB2L1_6 (sense AAGGATGGCCAGGCCATGTTA; chemistry not given here)
- Score_si2: 1.62

Substance: Hs_GNG13_2 (sense CACGTGATTACAGTCTGTAAA; chemistry not given here)
- Score_si2: 1.42

Substance: Hs_GNG13_3 (sense CCCACTCACAACATCTTGTAA; chemistry not given here)
- Score_si4: 0.93

Substance: Hs_GNG13_4 (sense CCCACTCACTCCATCTTGTAA; chemistry not given here)
- Score_si3: 1.13

Substance: Hs_GP1BB_3 (sense CTGCTGCGTCTCCCTTCCAAA; chemistry not given here) [reference compound]
- Score_si2: -0.99

Substance: Hs_GP1BB_4 (sense CGAGCTGGTGCTGACCGGCAA; chemistry not given here) [reference compound]
- Score_si3: -0.68

Substance: Hs_GP1BB_5 (sense ACGAGTCCTGAGGAGAGAA; chemistry not given here) [reference compound]
- Score_si1: -1.46

Substance: Hs_GPS1_3 (sense CAAGTGGGCGGTGTCCATTAA; chemistry not given here)
- Score_si3: 1.75

Substance: Hs_GPS1_6 (sense CAGCCTGGATCTGGAACAGTA; chemistry not given here)
- Score_si2: 1.76

Substance: Hs_GPSN2_1 (sense CTGGATCGGTTTCGCCATCAT; chemistry not given here)
- Score_si2: 2.41

Substance: Hs_GPSN2_2 (sense GTGGATGGCCTATTACATCAA; chemistry not given here)
- Score_si1: 2.86

Substance: Hs_GRB10_2 (sense CTACCGTATAGTAACACTGTA; chemistry not given here)
- Score_si1: 0.95

Substance: Hs_GRB10_4 (sense GTGAATTGTTGGAGAATGTAA; chemistry not given here)
- Score_si3: 0.73

Substance: Hs_GRB10_6 (sense CTAGATGACGGGAACACCAAA; chemistry not given here)
- Score_si4: 0.5

Substance: Hs_GSTP1_2 (sense CCAGATCTCCTTCGCTGACTA; chemistry not given here)
- Score_si1: 2.46

Substance: Hs_GSTP1_3 (sense TCCTTTCTCCAGGACCAATAA; chemistry not given here)
- Score_si4: -0.14

Substance: Hs_GSTP1_5 (sense CCTCATCTACACCAACTATGA; chemistry not given here)
- Score_si3: 0.45
